Results reported in patent publication US12577594B2, “Engineered microorganisms and methods for improved aldehyde dehydrogenase activity” (Genomatica, Inc., priority 2019, dated 2026).

Experiments:
Assay in all cases: Kinetic characterization of purified Ald with varied substrate CoA (Example 4, Table 5)
[1] = tested on: CC(C)(COP(=O)(O)OP(=O)(O)OC[C@H]1O[C@@H](n2cnc3c(N)ncnc32)[C@H](O)[C@@H]1OP(=O)(O)O)[C@@H](O)C(=O)NCCC(=O)NCCSC(=O)CCC(=O)O; type: biochemical, Romboutsia lituseburensis DSM; conditions: other: purified protein, conditions similar to Example 1 (0.1 M Tris-HCl, pH 7.5)
Protocol: (§1) The lysates (5 μl) were added to an assay mixture to result in a total volume of 20 μL with final concentrations of 0.1 M Tris-HCl, pH 7.5, 2.5 mM adipyl-CoA (AdCoA), and either 0.5 mM NADH or 0.5 mM NADPH. This assay was used to screen all of the Ald enzyme candidates. Some Ald candidates were also assayed using succinyl-CoA (SuCoA) or acetyl-CoA (AcCoA) as substrates. AdCoA, SuCoA, and AcCoA were obtained from commercial suppliers. Activity was monitored by a linear decrease in fluorescence of NADH or NADPH in the presence of the CoA substrate.
(§2) Kinetic characterization was done under similar conditions as the lysate screening described in Example 1; however, in this case purified protein was used instead of cell lysates. Each of the Acidaminococcus massiliensis Ald (SEQ ID NO:28), the Collinsella sp. GD7 Ald (SEQ ID NO:60), and the Romboutsia lituseburensis DSM Ald (SEQ ID NO:107) was purified using affinity chromatography. In these assays, the concentration each of the substrate CoAs was varied to determine the turnover number (kcat), the affinity of the enzyme for the substrate (KM) of the enzyme, the catalytic efficiency (kcat/KM) of each selected Ald enzyme for each substrate were determined and shown in the Table 5 below.
(§3) Catalytic efficiency (kcat/KM) of the various aldehyde dehydrogenases using various substrates were plotted in a bar graph for comparison (FIG. 3A).

[2] = tested on: CC(C)(COP(=O)(O)OP(=O)(O)OC[C@H]1O[C@@H](n2cnc3c(N)ncnc32)[C@H](O)[C@@H]1OP(=O)(O)O)[C@@H](O)C(=O)NCCC(=O)NCCSC(=O)CCCCC(=O)O; type: biochemical, Romboutsia lituseburensis DSM; conditions: other: purified protein, conditions similar to Example 1 (0.1 M Tris-HCl, pH 7.5)
Protocol: as §1, §2, §3

[3] = tested on: CC(=O)SCCNC(=O)CCNC(=O)[C@H](O)C(C)(C)COP(=O)(O)OP(=O)(O)OC[C@H]1O[C@@H](n2cnc3c(N)ncnc32)[C@H](O)[C@@H]1OP(=O)(O)O; type: biochemical, Romboutsia lituseburensis DSM; conditions: other: purified protein, conditions similar to Example 1 (0.1 M Tris-HCl, pH 7.5)
Protocol: as §1, §2, §3

[4] = tested on: Collinsella sp. GD7 aldehyde dehydrogenase (Ald), SEQ ID NO: 60; type: biochemical; conditions: for Catalytic efficiency kcat/KM / Km / Turnover number kcat: purified protein, substrate CoA varied, conditions similar to Example 1 (0.1 M Tris-HCl, pH 7.5)
Protocol: as §1, §2, §3

[5] = tested on: Acidaminococcus massiliensis aldehyde dehydrogenase (Ald), SEQ ID NO: 28; type: biochemical; conditions: for Catalytic efficiency kcat/KM / Km / Turnover number kcat: purified protein, substrate CoA varied, conditions similar to Example 1 (0.1 M Tris-HCl, pH 7.5)
Protocol: as §1, §2, §3

[6] = target: Romboutsia lituseburensis DSM aldehyde dehydrogenase (Ald), SEQ ID NO: 107 (Romboutsia lituseburensis, UniProt A0A1G9MGA8); type: biochemical; conditions: ratio of kcat/KM
Protocol: as §1, §2, §3

Romboutsia lituseburensis DSM aldehyde dehydrogenase (Ald), SEQ ID NO: 107 (Romboutsia lituseburensis DSM 797)
Km [1]: 220 µM
kcat [1]: 0.056 s⁻¹
kcat/Km [1]: 250 M⁻¹ s⁻¹
Km [2]: 240 µM
kcat [2]: 1.0 s⁻¹
kcat/Km [2]: 4000 M⁻¹ s⁻¹
Km [3]: 310 µM
kcat [3]: 0.013 s⁻¹
kcat/Km [3]: 40 M⁻¹ s⁻¹

CC(=O)SCCNC(=O)CCNC(=O)[C@H](O)C(C)(C)COP(=O)(O)OP(=O)(O)OC[C@H]1O[C@@H](n2cnc3c(N)ncnc32)[C@H](O)[C@@H]1OP(=O)(O)O [Acetyl-CoA]
Catalytic efficiency kcat/KM [4]: 1.6 M⁻¹ s⁻¹
Km [4]: > 2000 µM
Catalytic efficiency kcat/KM [5]: 100 M⁻¹ s⁻¹
Km [5]: 380 µM
Turnover number kcat [5]: 0.040 s⁻¹

CC(C)(COP(=O)(O)OP(=O)(O)OC[C@H]1O[C@@H](n2cnc3c(N)ncnc32)[C@H](O)[C@@H]1OP(=O)(O)O)[C@@H](O)C(=O)NCCC(=O)NCCSC(=O)CCCCC(=O)O [Adipyl-CoA]
Catalytic efficiency kcat/KM [4]: 150 M⁻¹ s⁻¹
Km [4]: 100 µM
Turnover number kcat [4]: 0.015 s⁻¹
Catalytic efficiency (kcat/KM) for adipyl-CoA over succinyl-CoA ([4]; ratio of kcat/KM, FIG. 3B): higher catalytic efficiency for adipyl-CoA over succinyl-CoA
Catalytic efficiency (kcat/KM) for adipyl-CoA over acetyl-CoA ([4]; ratio of kcat/KM, FIG. 3C): higher catalytic efficiency for adipyl-CoA over acetyl-CoA
Catalytic efficiency kcat/KM [5]: 3000 M⁻¹ s⁻¹
Km [5]: 810 µM
Turnover number kcat [5]: 2.5 s⁻¹
Catalytic efficiency (kcat/KM) for adipyl-CoA over succinyl-CoA ([5]; ratio of kcat/KM, FIG. 3B): higher catalytic efficiency for adipyl-CoA over succinyl-CoA
Catalytic efficiency (kcat/KM) for adipyl-CoA over acetyl-CoA ([5]; ratio of kcat/KM, FIG. 3C): higher catalytic efficiency for adipyl-CoA over acetyl-CoA
Catalytic efficiency (kcat/KM) for adipyl-CoA over succinyl-CoA ([6]; FIG. 3B): higher catalytic efficiency for adipyl-CoA over succinyl-CoA
Catalytic efficiency (kcat/KM) for adipyl-CoA over acetyl-CoA ([6]; FIG. 3C): higher catalytic efficiency for adipyl-CoA over acetyl-CoA

CC(C)(COP(=O)(O)OP(=O)(O)OC[C@H]1O[C@@H](n2cnc3c(N)ncnc32)[C@H](O)[C@@H]1OP(=O)(O)O)[C@@H](O)C(=O)NCCC(=O)NCCSC(=O)CCC(=O)O [Succinyl-CoA]
Catalytic efficiency kcat/KM [4]: 26 M⁻¹ s⁻¹
Km [4]: 400 µM
Turnover number kcat [4]: 0.010 s⁻¹
Catalytic efficiency kcat/KM [5]: 290 M⁻¹ s⁻¹
Km [5]: 790 µM
Turnover number kcat [5]: 0.23 s⁻¹
